Test results as given in patent publication US20060024844A1, “Method for the idenification of ligands” (priority 2002, published 2006).
Where two headings read alike, the source gives them in different places. Blank lines part the entries; values can stand above or below the compound they belong to.

Legend:
Assay type in all cases: binding
ER-α [1] = molecular target: T1, ER-α (Homo sapiens, UniProt P03372); assay: Microplate thermal shift assay (Thermofluor) of ER-α with ligands and co-regulators
T1 sequence (P03372 1-595): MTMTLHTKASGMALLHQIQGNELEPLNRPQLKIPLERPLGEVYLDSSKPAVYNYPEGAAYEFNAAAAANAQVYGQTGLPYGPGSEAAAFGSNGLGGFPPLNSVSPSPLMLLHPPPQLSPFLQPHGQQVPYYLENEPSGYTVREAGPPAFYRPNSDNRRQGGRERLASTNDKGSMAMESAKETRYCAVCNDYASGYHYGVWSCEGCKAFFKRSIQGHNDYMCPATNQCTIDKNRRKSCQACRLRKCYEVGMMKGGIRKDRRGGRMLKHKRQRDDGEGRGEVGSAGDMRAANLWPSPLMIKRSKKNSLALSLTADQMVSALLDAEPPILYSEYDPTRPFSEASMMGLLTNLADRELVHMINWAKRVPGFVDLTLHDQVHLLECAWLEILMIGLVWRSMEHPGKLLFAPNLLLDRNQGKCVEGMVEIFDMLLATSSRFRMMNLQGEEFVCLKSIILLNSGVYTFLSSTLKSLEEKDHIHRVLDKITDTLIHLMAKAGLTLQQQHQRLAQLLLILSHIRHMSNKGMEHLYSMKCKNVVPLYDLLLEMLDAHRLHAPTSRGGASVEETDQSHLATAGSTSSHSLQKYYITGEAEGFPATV
Method: (§1) A 2 μL ligand solution at 2 times the final concentration was dispensed with a micropipette into a 384 well black wall Greiner plate. Then, 2 μL of the protein dye solution was dispensed on top of the ligand solution in the 384 well plate. The plates were spun to ensure mixing of the protein-dye and ligand solutions followed by layering of 1 μL of silicone oil to prevent evaporation during heating of the samples.

ER-β = ER-β (Homo sapiens, UniProt Q92731); assay: Microplate thermal shift assay (Thermofluor) of ER-β with ligands and co-regulators; details: for ΔTm at 11 µM / Change in Tm stabilization from the receptor-ligand ΔTm in the presence of SRC-1 NR2 / Change in Tm stabilization from the receptor-ligand ΔTm in the presence of SRC-3 NR2 / Change in Tm stabilization from the receptor-ligand ΔTm in the presence of SRC-3 / Change in Tm stabilization from the receptor-ligand ΔTm in the presence of NCoR1 / Observed ΔTm stabilization, ligand alone: ER-β 8 μM, ligand 20 μM; for ΔTm at 11 µM / Change in Tm stabilization from the receptor-ligand ΔTm in the presence of SRC-3: co-activator protein SRC-3 11 μM; for ΔTm at 11 µM: read-out: Change in Tm stabilization from the receptor-ligand ΔTm in the presence of SRC-3; for Change in Tm stabilization from the receptor-ligand ΔTm in the presence of SRC-1 NR2: co-activator peptide SRC1—NR2; for Change in Tm stabilization from the receptor-ligand ΔTm in the presence of SRC-3 NR2: co-activator peptide SRC3—NR2; for Change in Tm stabilization from the receptor-ligand ΔTm in the presence of NCoR1: co-repressor peptide NCoR-1; for Observed ΔTm stabilization, ligand alone: no co-regulator, average of four experiments
Sequence of ER-β (Q92731 whole entry, species assumed): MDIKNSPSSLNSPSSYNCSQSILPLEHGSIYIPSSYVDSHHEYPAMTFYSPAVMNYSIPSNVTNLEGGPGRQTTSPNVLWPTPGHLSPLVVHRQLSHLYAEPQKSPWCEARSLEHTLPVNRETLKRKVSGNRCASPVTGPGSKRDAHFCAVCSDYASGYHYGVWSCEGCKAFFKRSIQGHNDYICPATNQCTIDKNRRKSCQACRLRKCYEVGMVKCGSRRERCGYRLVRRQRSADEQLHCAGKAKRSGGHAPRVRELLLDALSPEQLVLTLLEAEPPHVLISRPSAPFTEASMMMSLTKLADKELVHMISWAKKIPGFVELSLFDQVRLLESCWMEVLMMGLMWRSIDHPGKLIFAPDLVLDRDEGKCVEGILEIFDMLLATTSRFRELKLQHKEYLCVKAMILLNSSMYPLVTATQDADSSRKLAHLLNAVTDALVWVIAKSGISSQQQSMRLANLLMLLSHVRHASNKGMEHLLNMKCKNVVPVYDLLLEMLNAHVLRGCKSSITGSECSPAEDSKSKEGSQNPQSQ
Method: as §1

ER-α [2] = molecular target: T1, ER-α; assay: Microplate thermal shift assay (Thermofluor) of ER-α against a panel of steroid ligands
Method: The concentration of ER-α in all of the experiments was 8 μM and the ligand concentration was 20 μM.
A 2 μL ligand solution at 2 times the final concentration was dispensed with a micropipette into a 384 well black wall Greiner plate. Then, 2 μL of the protein dye solution was dispensed on top of the ligand solution in the 384 well plate. The plates were spun to ensure mixing of the protein-dye and ligand solutions followed by layering of […], of silicone oil to prevent evaporation during heating of the samples.

[3] = ER-α 8 μM, ligand 20 μM, average of four experiments, in °C (unit assumed)
[4] = ER-α 8 μM, ligand 20 μM, average of four experiments

Compound: 4-hydroxytamoxifen [4-OH-tamoxifen]
Ligand function for ER-α (agonist or antagonist) (ER-α [2]): antagonist
ΔTm (ER-α [2]; in °C (unit assumed)): 19.99

Compound: COc1cc2c(cc1O)CC[C@@H]1[C@@H]2CC[C@]2(C)[C@@H](O)CC[C@@H]12 [2-methoxy-E2, 2-methoxyestradiol]
Change in Tm stabilization from the receptor-ligand ΔTm in the presence of NCoR1 (ER-α [1]; ER-α 8 μM, ligand 20 μM, co-repressor peptide NCoR-1): −0.3
Observed ΔTm stabilization, ligand alone (ER-α [1]; ER-α 8 μM, ligand 20 μM, no co-regulator, average of four experiments): 1.8
Change in Tm stabilization from the receptor-ligand ΔTm in the presence of SRC-1 NR2 (ER-β): 4.4
Change in Tm stabilization from the receptor-ligand ΔTm in the presence of SRC-3 NR2 (ER-β): 4.4
Change in Tm stabilization from the receptor-ligand ΔTm in the presence of SRC-3 (ER-β): 2.2
Change in Tm stabilization from the receptor-ligand ΔTm in the presence of NCoR1 (ER-β): −0.7
Observed ΔTm stabilization, ligand alone (ER-β): 1.5
ΔTm (ER-α [2]; [3]): 5.98
Ligand function for ER-α (agonist or antagonist) (ER-α [2]; interpretation if ligands had been screened against co-regulators as in Example 1): agonists

Compound: C[C@@]12CCC[C@H]1[C@@H]1CCC3=CCCC[C@]3(C)[C@H]1CC2 [4-androstene]
ΔTm (ER-α [2]; [4]): −0.23

Compound: CC(=O)[C@H]1CC[C@H]2[C@@H]3CCC4=CC(=O)CC[C@]4(C)[C@H]3CC[C@]12C [progesterone]
ΔTm (ER-α [2]; [4]): −0.19

Compound: C[C@]12CCC(=O)C=C1CC[C@@H]1[C@@H]2C(=O)C[C@@]2(C)[C@H]1CC[C@]2(O)C(=O)CO [cortisone]
ΔTm (ER-α [2]; [3]): 0.01

Further lines, with some results ahead:

Preferential recruitment of co-activator, ER-α vs. ER-β (ER-α [1]; in the presence of estrogen-like ligands, result in words): preferentially recruited
Compound: SRC-3: co-activator protein SRC-3
Observed ΔTm stabilization by co-regulator alone (no ligand) (ER-α [1]; ER-α 8 μM, no ligand, SRC-3 11 μM, peptides 100 XM): 0.5 °C

ΔTm at 11 µM (ER-β): 1.1 °C
Compound: C[C@]12CC[C@@H]3c4ccc(O)cc4CC[C@H]3[C@@H]1CC[C@@H]2O [Estradiol, β-estradiol]

ΔTm (ER-α [2]; [4]): −0.27
Compound: C[C@]12C[C@H](O)[C@H]3[C@@H](CCC4=CC(=O)CC[C@@]43C)[C@@H]1CC[C@@H]2C(=O)CO [corticosterone]

Change in Tm stabilization from the receptor-ligand ΔTm in the presence of SRC-1 NR2 (ER-β): 2.6
Change in Tm stabilization from the receptor-ligand ΔTm in the presence of SRC-3 NR2 (ER-β): 2.6
Change in Tm stabilization from the receptor-ligand ΔTm in the presence of SRC-3 (ER-β): 1.6
Change in Tm stabilization from the receptor-ligand ΔTm in the presence of NCoR1 (ER-β): −0.1
Observed ΔTm stabilization, ligand alone (ER-β): 15.0
Compound: 17-α-ethyleneestradiol [17-α-ethylen-E2]

ΔTm at 11 µM (ER-α [1]; ER-α 8 μM, ligand 20 μM, co-activator protein SRC-3 11 μM, read-out: Change in Tm stabilization from the receptor-ligand ΔTm in the presence of SRC-3): 0 °C
Additional stabilization / ability to recruit co-activators in the presence of co-activator protein/peptide (ER-α [1]; ER-α, result in words): no ability to recruit co-activators
ΔTm at 11 µM (ER-β): 0.6 °C
Observed ΔTm stabilization, ligand alone (ER-β): 13.6
Additional stabilization / ability to recruit co-activators in the presence of co-activator protein/peptide (ER-β; ER-β, result in words): no ability to recruit co-activators
Compound: C[C@]12CC[C@@H]3c4ccc(O)cc4C[C@@H](CCCCCCCCC[S+]([O-])CCCC(F)(F)C(F)(F)F)[C@H]3[C@@H]1CC[C@@H]2O (stereo partly shown) [ICI-182780]
